{"source": "patent US9409952B2", "about": "“Peptide-compound cyclization method” (Chugai Seiyaku Kabushiki Kaisha, priority 2011, dated 2016)", "key": {"[1]": {"experiment": "Metabolic stability in human hepatic microsome", "type": "in vitro ADME", "conditions": "microsomes, pH 7.4; human hepatic microsome, NADPH(+); read-out: CL NADPH(+)"}, "[2]": {"experiment": "PAMPA (parallel artificial membrane permeability assay)", "type": "in vitro ADME", "conditions": "PAMPA; membrane permeation rate (Pe); 50 mM MOPSO buffer pH 6.5 with 5.0% glycocholic acid, 37° C., 18 hours; read-out: iPAMPA Pe", "summary_of_the_method": "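Artificial membrane was 10% (w/v) egg lecithin plus 0.5% (w/v) cholesterol in dodecane on a PVDF filter. A 10 mM DMSO stock was added at 0.5% (v/v) to donor buffer (50 mM MOPSO, pH 6.5, 5.0% glycocholic acid). After 18 h at 37 °C, LC/MS or LC/UV gave donor and acceptor levels for Pe.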"}}, "note": "Starred links: 1 amine or outer side, 2 acyl side, 3 side chain; linkers in the order of their positions; H or OH if unused. Positions of bridges follow the written chain, without caps; N, C: chain ends. Non-standard residues stand in square brackets, D forms with d. Residues, ends and D or L forms follow the SMILES beside them. *: point of attachment. NMeF = CN[C@@H](Cc1ccccc1)C(=O)O; NMeβAla = CN(CCC(=O)[*:2])[*:1]; NMeL = CN[C@@H](CC(C)C)C(=O)O; NMeV = CN[C@H](C(=O)O)C(C)C; NMeA = CN[C@@H](C)C(=O)O; Piperidide = C1CCN(*)CC1; dNMeA = CN[C@H](C)C(=O)O; Sar = CNCC(=O)O", "data": [{"smiles": "CC(C)C[C@H]1C(=O)N[C@@H](C)C(=O)N(C)[C@@H](Cc2ccccc2)C(=O)N(C)[C@@H](C)C(=O)N(C)[C@@H](Cc2ccccc2)C(=O)N[C@H](C(=O)N(C)[C@@H](Cc2ccccc2)C(=O)N[C@@H](C)C(=O)N2CCCCC2)CC(=O)N(C)[C@H](C)C(=O)N(C)[C@@H](C)C(=O)N(C)[C@@H](CC(C)C)C(=O)N[C@@H]([C@@H](C)O)C(=O)N(C)[C@@H](C)C(=O)N1C", "note": "[DP-347] ([dNMeA][NMeA][NMeL]T[NMeA][NMeL]A[NMeF][NMeA][NMeF]D[NMeF]A-Piperidide; lactam N-11)", "values": [{"measurement": "microsomal CLint at 1 uM", "setting": "[1]", "result": 40, "unit": "µL/min/mg"}, {"measurement": "Papp at 18 hours, 50 µM", "setting": "[2]", "result": 250, "unit": "nm/s"}]}, {"smiles": "CC(C)C[C@H]1C(=O)N(C)[C@@H](Cc2ccccc2)C(=O)N[C@@H]([C@@H](C)O)C(=O)N(C)[C@@H](C)C(=O)N[C@@H](C)C(=O)N(C)[C@@H](Cc2ccccc2)C(=O)N[C@@H](C)C(=O)N(C)[C@@H](C(C)C)C(=O)N(C)[C@@H](C)C(=O)N[C@H](C(=O)N(C)[C@@H](Cc2ccccc2)C(=O)N[C@@H](C)C(=O)N2CCCCC2)CC(=O)N(C)[C@H](C)C(=O)N1C", "note": "[DP-348] ([dNMeA][NMeL][NMeF]T[NMeA]A[NMeF]A[NMeV][NMeA]D[NMeF]A-Piperidide; lactam N-11)", "values": [{"measurement": "microsomal CLint at 1 uM", "setting": "[1]", "result": 17, "unit": "µL/min/mg"}, {"measurement": "Papp at 18 hours, 50 µM", "setting": "[2]", "result": 190, "unit": "nm/s"}]}, {"smiles": "CC(C)C[C@H]1C(=O)N[C@H](C(=O)N(C)[C@@H](Cc2ccccc2)C(=O)N[C@@H](C)C(=O)N2CCCCC2)CC(=O)N(C)[C@@H](C)C(=O)N(C)[C@@H](C)C(=O)N[C@@H](C(C)C)C(=O)N(C)[C@@H](C)C(=O)N(C)[C@@H](Cc2ccccc2)C(=O)N[C@@H]([C@@H](C)O)C(=O)N(C)CC(=O)N(C)[C@@H](C)C(=O)N1C", "note": "[DP-349] ([NMeA][NMeA]V[NMeA][NMeF]T[Sar][NMeA][NMeL]D[NMeF]A-Piperidide; lactam N-10)", "values": [{"measurement": "microsomal CLint at 1 uM", "setting": "[1]", "result": 13, "unit": "µL/min/mg"}, {"measurement": "Papp at 18 hours, 50 µM", "setting": "[2]", "result": 39, "unit": "nm/s"}]}, {"smiles": "CC(C)C[C@@H]1NC(=O)[C@H](CC(C)C)N(C)C(=O)[C@H](C)N(C)C(=O)C[C@@H](C(=O)N(C)[C@@H](Cc2ccccc2)C(=O)N[C@@H](C)C(=O)N2CCCCC2)NC(=O)[C@H](CC(C)C)N(C)C(=O)[C@H](Cc2ccccc2)NC(=O)[C@H](Cc2ccccc2)N(C)C(=O)[C@H](C)NC(=O)[C@H]([C@@H](C)O)NC(=O)[C@H](CC(C)C)N(C)C1=O", "note": "[DP-350] ([NMeA][NMeL]L[NMeL]TA[NMeF]F[NMeL]D[NMeF]A-Piperidide; lactam N-10)", "values": [{"measurement": "microsomal CLint at 1 uM", "setting": "[1]", "result": 29, "unit": "µL/min/mg"}, {"measurement": "Papp at 18 hours, 50 µM", "setting": "[2]", "result": 20, "unit": "nm/s"}]}, {"smiles": "CC(C)C[C@@H]1NC(=O)[C@H]([C@@H](C)O)NC(=O)[C@H](CC(C)C)N(C)C(=O)[C@H](C)N(C)C(=O)[C@H](Cc2ccccc2)N(C)C(=O)[C@H](Cc2ccccc2)NC(=O)[C@H](CC(C)C)N(C)C(=O)CCN(C)C(=O)C[C@@H](C(=O)N(C)[C@@H](Cc2ccccc2)C(=O)N[C@@H](C)C(=O)N2CCCCC2)NC(=O)[C@H](CC(C)C)N(C)C1=O", "note": "[DP-351] ([NMeβAla][NMeL]F[NMeF][NMeA][NMeL]TL[NMeL]D[NMeF]A-Piperidide; lactam N-10)", "values": [{"measurement": "microsomal CLint at 1 uM", "setting": "[1]", "result": 51, "unit": "µL/min/mg"}, {"measurement": "Papp at 18 hours, 50 µM", "setting": "[2]", "result": 630, "unit": "nm/s"}]}, {"smiles": "CC(C)C[C@H]1C(=O)N[C@@H](Cc2ccccc2)C(=O)N(C)[C@@H](C(C)C)C(=O)N[C@@H]([C@@H](C)O)C(=O)N(C)[C@@H](C)C(=O)NCC(=O)N(C)[C@@H](Cc2ccccc2)C(=O)N[C@H](C(=O)N(C)[C@@H](Cc2ccccc2)C(=O)N[C@@H](C)C(=O)N2CCCCC2)CC(=O)N(C)CCC(=O)N[C@@H](C(C)C)C(=O)N1C", "note": "[DP-352] ([NMeβAla]V[NMeL]F[NMeV]T[NMeA]G[NMeF]D[NMeF]A-Piperidide; lactam N-10)", "values": [{"measurement": "microsomal CLint at 1 uM", "setting": "[1]", "result": 66, "unit": "µL/min/mg"}, {"measurement": "Papp at 18 hours, 50 µM", "setting": "[2]", "result": 250, "unit": "nm/s"}]}, {"smiles": "CC(C)C[C@H]1C(=O)N[C@@H]([C@@H](C)O)C(=O)N(C)[C@@H](C)C(=O)N[C@H](C(=O)N(C)[C@@H](Cc2ccccc2)C(=O)N[C@@H](C)C(=O)N2CCCCC2)CC(=O)N(C)[C@H](C)C(=O)N(C)[C@@H](Cc2ccccc2)C(=O)N(C)[C@@H](C)C(=O)N[C@@H](C)C(=O)N(C)[C@@H](C)C(=O)N(C)[C@@H](Cc2ccccc2)C(=O)N1C", "note": "[DP-353] ([dNMeA][NMeF][NMeA]A[NMeA][NMeF][NMeL]T[NMeA]D[NMeF]A-Piperidide; lactam N-10)", "values": [{"measurement": "microsomal CLint at 1 uM", "setting": "[1]", "result": 13, "unit": "µL/min/mg"}, {"measurement": "Papp at 18 hours, 50 µM", "setting": "[2]", "result": 160, "unit": "nm/s"}]}]}
